Test results reported in US4194006A, “Therapeutic application of acetyl-d,l-carnitine and other acyl derivatives of d,l-carnitine” (priority 1977, dated 1980).

Assays:
[1] = system: mice; assay: in vivo
Description: The tolerance of acetyl-d,l-carnitine and of the other aforementioned acyl derivatives of the formula (I), as well as their salts were investigated by comparing the LD50 obtained by administering the compounds intravenously in mice with the LD50 obtained under the same experimental conditions by intravenous injection of d,l-carnitine.

[2] = system: isolated rabbit hearts; assay: cardiokinetic effect on isolated heart (Langendorff): contractile force after anoxia, positive inotropic effect; details: for Contractile force, Mean ± S.E.: 10 minutes from interruption of anoxic period
In short: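 Rabbit hearts were perfused Langendorff-style with oxygenated Ringer at 38.2 °C. Anoxia was applied until contractile force dropped by 80%, then the hearts were reoxygenated with or without compound. Contractile force was expressed as a percentage 10 min after the anoxic period ended.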

[3] = system: isolated rabbit hearts; assay: coronary vasodilator effect: coronary flow, isolated heart (Langendorff)
In short: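 Langendorff-perfused isolated rabbit hearts in oxygenated Ringer at 38.2° C; anoxia imposed until contractile force fell by 80%, then reoxygenated with or without test compound. Coronary flow, isometric contraction and ECG recorded by polygraph.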

[4] = system: isolated rat atrium; assay: antiarrhythmic effect, isolated rat atrium method of M. Libonati and G. Segre; details: for Mean percent variation versus controls: excitability (-%) / Mean percent variation versus controls: frequency max (-%): decrease; for Mean percent variation versus controls: refractory period (+%) / Mean percent variation versus controls: rheobase (+%): increase
[5] = system: female rats; assay: antifatigue effect: rota-rod; format: in vivo, rat
In short: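 Female rats dosed intraperitoneally in saline, with controls given saline alone. Every 15 min after treatment animals were placed on a 6 cm rod rotating at 16 r.p.m. Value is the percentage of animals staying on the rod for more than 180 s, per session.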

[6] = system: adrenaline-induced toxicity; assay: antagonism to adrenaline-induced toxicity; format: in vivo, male albino Swiss mice
Method: (§1) The antagonism to adrenaline-induced toxicity was also investigated with the following results. Groups of ten male albino Swiss mice were injected with adrenaline (tartrate) intraperitoneally at progressive logarithmic doses. Other similar groups of animals were injected with 250 mg/kg of the compounds under examination via the same route, 30 minutes before adrenaline administration. Mortality was assessed by means of the Litchfield and Wilcoxon method 36 hours after adrenaline administration.

[7] = antagonism to adrenaline-induced toxicity; format: in vivo, male albino Swiss mice; details: mouse, in vivo, ip; adrenaline (tartrate) intraperitoneally, mice; mortality 36 hours; read-out: LD50 (fiducial limits for 95%) of adrenaline alone
Method: as §1

CC(O)CC(=O)OC(CC(=O)[O-])C[N+](C)(C)C (stereo not shown)
tolerance ([1]; LD50 intravenously in mice, compared with d,l-carnitine): better tolerance properties | Approx. LD50 ([1]; intravenously in mice, compounds used as hydrochloryde forms): ~745 mg/kg | Contractile force, Mean ± S.E. ([2]; 1·10^-5 g/lt): 54.3 ± 6.18% | Contractile force, Mean ± S.E. ([2]; 1·10^-6 g/lt): 30.1 ± 4.62% | Contractile force, Mean ± S.E. ([2]; 5·10^-6 g/lt): 38.6 ± 7.12% | positive inotropic effect ([2]; equal concentrations in the perfusion fluid, Student's t test): greater positive inotropic effect than that induced by d,l-carnitine | Coronary flow, Mean ± S.E. ([3]; 1·10^-5 g/lt): 89.19 ± 6.75% | Coronary flow, Mean ± S.E. ([3]; 1·10^-6 g/lt): 73.12 ± 6.80% | Coronary flow, Mean ± S.E. ([3]; 5·10^-6 g/lt): 76.04 ± 8.96% | Mean percent variation versus controls: excitability (-%) ([4]; 1·10^-4 g/lt): 63.60% | Mean percent variation versus controls: frequency max (-%) ([4]; 1·10^-4 g/lt): 42.30% | Mean percent variation versus controls: refractory period (+%) ([4]; 1·10^-4 g/lt): 27.10% | Mean percent variation versus controls: rheobase (+%) ([4]; 1·10^-4 g/lt): 42.12% | Mean percent variation versus controls: excitability (-%) ([4]; 1·10^-5 g/lt): 19.12% | Mean percent variation versus controls: frequency max (-%) ([4]; 1·10^-5 g/lt): 23.20% | Mean percent variation versus controls: refractory period (+%) ([4]; 1·10^-5 g/lt): 20.31% | Mean percent variation versus controls: rheobase (+%) ([4]; 1·10^-5 g/lt): 25.35% | Mean percent variation versus controls: excitability (-%) ([4]; 1·10^-6 g/lt): 12.07% | Mean percent variation versus controls: frequency max (-%) ([4]; 1·10^-6 g/lt): 10.02% | Mean percent variation versus controls: refractory period (+%) ([4]; 1·10^-6 g/lt): 16.32% | Mean percent variation versus controls: rheobase (+%) ([4]; 1·10^-6 g/lt): 9.78% | antiarrhythmic effect ([4]; isolated rat atrium): most clear cut antiarrhythmic properties | percentage of animals staying on the rota-rod more than 180 seconds ([5]; 300 mg/kg i.p., session 1 (every 15 minutes)): 0% | percentage of animals staying on the rota-rod more than 180 seconds ([5]; 300 mg/kg i.p., session 2 (every 15 minutes)): 0% | percentage of animals staying on the rota-rod more than 180 seconds ([5]; 300 mg/kg i.p., session 3 (every 15 minutes)): 0% | percentage of animals staying on the rota-rod more than 180 seconds ([5]; 300 mg/kg i.p., session 4 (every 15 minutes)): 0% | percentage of animals staying on the rota-rod more than 180 seconds ([5]; 300 mg/kg i.p., session 5 (every 15 minutes)): 10.0% | percentage of animals staying on the rota-rod more than 180 seconds ([5]; 300 mg/kg i.p., session 6 (every 15 minutes)): 20.0% | percentage of animals staying on the rota-rod more than 180 seconds ([5]; 400 mg/kg i.p., session 1 (every 15 minutes)): 0% | percentage of animals staying on the rota-rod more than 180 seconds ([5]; 400 mg/kg i.p., session 2 (every 15 minutes)): 0% | percentage of animals staying on the rota-rod more than 180 seconds ([5]; 400 mg/kg i.p., session 3 (every 15 minutes)): 10.0% | percentage of animals staying on the rota-rod more than 180 seconds ([5]; 400 mg/kg i.p., session 4 (every 15 minutes)): 20.0% | percentage of animals staying on the rota-rod more than 180 seconds ([5]; 400 mg/kg i.p., session 5 (every 15 minutes)): 20.0% | percentage of animals staying on the rota-rod more than 180 seconds ([5]; 400 mg/kg i.p., session 6 (every 15 minutes), * p < 0.05): 30.0% | percentage of animals staying on the rota-rod more than 180 seconds ([5]; 600 mg/kg i.p., session 1 (every 15 minutes)): 0% | percentage of animals staying on the rota-rod more than 180 seconds ([5]; 600 mg/kg i.p., session 2 (every 15 minutes)): 0% | percentage of animals staying on the rota-rod more than 180 seconds ([5]; 600 mg/kg i.p., session 3 (every 15 minutes)): 10.0% | percentage of animals staying on the rota-rod more than 180 seconds ([5]; 600 mg/kg i.p., session 4 (every 15 minutes)): 20.0% | percentage of animals staying on the rota-rod more than 180 seconds ([5]; 600 mg/kg i.p., session 5 (every 15 minutes)): 30.0% | percentage of animals staying on the rota-rod more than 180 seconds ([5]; 600 mg/kg i.p., session 6 (every 15 minutes), * p < 0.05): 40.0% | antagonism to adrenaline-induced toxicity ([6]; 250 mg/kg i.p. 30 minutes before adrenaline): antagonize adrenaline-induced toxicity to a greater degree than d,l-carnitine | LD50 (fiducial limits for 95%) of adrenaline after the compound ([6]; Adrenaline + compound, compound 250 mg/kg i.p. 30 minutes before adrenaline, mice, mortality 36 hours): 172.15 (110.02-219.48) mg/kg

CNCC(O)c1ccc(O)c(O)c1 (stereo not shown) [Adrenaline, reference compound]
LD50 at 36 h [7]: 27.7 mg/kg
